Each block holds one compound with its values, some of them ahead of it.
What was measured:
Rattus norvegicus = species on record: Rattus norvegicus; assay: Effective concentration for half-maximal release of growth hormone determined in the rat pituitary cell assay, normalized against standard L692,429 (60 nM).; format: functional; conditions: Pituitary gland cell
[1] = Bioavailability in dogs at 3.8 mg/kg oral dose.; format: ADME, organism-based, Canis lupus familiaris; conditions: dog, in vivo
[2] = Bioavailability in rats at 26.3 mg/kg oral dose.; format: ADME, organism-based; conditions: rat, in vivo
[3] = Volume of distribution was determined in dogs at 0.46 mg/kg, iv; format: ADME, organism-based, Canis lupus familiaris; set-up: dose 0.46 mg/kg, route intravenous; conditions: dog, in vivo, read-out: Vdss
[4] = Volume of distribution was determined in rat at 5.5 mg/kg, iv; format: ADME, organism-based; set-up: dose 5.5 mg/kg, route intravenous; conditions: in vivo, read-out: Vdss
[5] = Half-life determined at 5.5 mg/kg, iv, in rat; format: ADME, organism-based; set-up: dose 5.5 mg/kg; conditions: in vivo
[6] = Half-life determined at 0.46 mg/kg, iv, in dogs; format: ADME, organism-based, Canis lupus familiaris; set-up: dose 0.46 mg/kg; conditions: dog, in vivo
[7] = Clearance rate at 5.5 mg/kg, iv, in rat; format: ADME, organism-based; set-up: dose 5.5 mg/kg; conditions: in vivo
[8] = Clearance rate at 0.46 mg/kg, iv, in dogs; format: ADME, organism-based, Canis lupus familiaris; set-up: dose 0.46 mg/kg; conditions: dog, in vivo
[9] = Maximum plasma concentration following oral administration of 26.3 mg/kg in rats; format: ADME, organism-based; set-up: dose 26.3 mg/kg, route oral; conditions: rat
[10] = Maximum plasma concentration following oral administration of 3.8 mg/kg in Beagle dog; format: ADME, organism-based, Canis lupus familiaris; set-up: dose 3.8 mg/kg, route oral

Compound: CC(C)(N)C(=O)N[C@H](Cc1c[nH]c2ccccc12)C(=O)N1CCC[C@@](Cc2ccccc2)(C(=O)O)C1
EC50 (Rattus norvegicus): 190 nM

Compound: CCNC(=O)[C@]1(Cc2ccccc2)CCCN(C(=O)[C@@H](Cc2c[nH]c3ccccc23)NC(=O)C(C)(C)N)C1
EC50 (Rattus norvegicus): 0.8 nM

Compound: CCOC(=O)[C@]1(Cc2ccccc2)CCCN(C(=O)[C@@H](CCCc2ccccc2)NC(=O)C(C)(C)N)C1
EC50 (Rattus norvegicus): 8 nM

Compound: CCOC(=O)[C@]1(Cc2ccccc2)CCN(C(=O)[C@@H](Cc2c[nH]c3ccccc23)NC(=O)C(C)(C)N)C1
EC50 (Rattus norvegicus): > 50 nM

Compound: CCOC(=O)[C@@]1(Cc2ccccc2)CCCN(C(=O)[C@@H](Cc2c[nH]c3ccccc23)NC(=O)C(C)(C)N)C1
EC50 (Rattus norvegicus): 22 nM

bioavailability [1]: 29%
bioavailability [2]: 12.1%
Vd [3]: 1.3 L/kg
Vd [4]: 2.7 L/kg
half-life [5]: 24 min
half-life [6]: 72 min
clearance [7]: 206 mL/min/kg
clearance [8]: 23 mL/min/kg
Cmax [9]: 182 ng/mL
Cmax [10]: 560 ng/mL
Compound: CCOC(=O)[C@]1(Cc2ccccc2)CCCN(C(=O)[C@@H](Cc2c[nH]c3ccccc23)NC(=O)C(C)(C)N)C1

Compound: CCOC(=O)[C@]1(Cc2ccccc2)CCCN(C(=O)[C@@H](COCc2ccccc2)NC(=O)C(C)(C)N)C1
EC50 (Rattus norvegicus): 20 nM

Compound: CCOC(=O)[C@]1(Cc2ccccc2)CCCN(C(=O)[C@@H](Cc2c[nH]c3ccccc23)NC(=O)C(C)N)C1 (stereo partly drawn)
EC50 (Rattus norvegicus): 6 nM

Compound: CCOC(=O)[C@]1(Cc2ccccc2)CCCCN(C(=O)[C@@H](Cc2c[nH]c3ccccc23)NC(=O)C(C)(C)N)C1
EC50 (Rattus norvegicus): > 200 nM
